Measured values as given in PubChem BioAssay AID330 (DTP/NCI, 2004).
Inconclusive results and toxic doses are left out.

Test system: P388 leukemia ip, CD2F1 mice, survival T/C
Assay: NCI In Vivo Anticancer Drug Screen. Data for tumor model P388 Leukemia (intraperitoneal) in CD2F1 (CDF1) mice
Details: endpoint: median survival time, higher = longer survival
In short: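 Mice carrying the transplanted tumor received test compound or vehicle. Survival was recorded in each group, and the value is the treated-group measurement divided by that of the vehicle-treated control group.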

[1] = dose: 12.5 mg/kg/injection, schedule: Q01DX009 (ip), vehicle: saline with Tween-80
[2] = dose: 25.0 mg/kg/injection, schedule: Q01DX009 (ip), vehicle: saline with Tween-80
[3] = dose: 50.0 mg/kg/injection, schedule: Q01DX009 (ip), vehicle: saline with Tween-80
[4] = dose: 50.0 mg/kg/injection, schedule: Q01DX009 (ip), vehicle: saline
[5] = dose: 100.0 mg/kg/injection, schedule: Q01DX009 (ip), vehicle: saline
[6] = dose: 12.5 mg/kg/injection, schedule: Q01DX009 (ip), vehicle: saline
[7] = dose: 100.0 mg/kg/injection, schedule: Q04DX003 (ip), vehicle: saline
[8] = dose: 100.0 mg/kg/injection, schedule: Q04DX002 (ip), vehicle: Klucel (hydroxypropylcellulose) (HPC)
[9] = dose: 100.0 mg/kg/injection, schedule: Q04DX003 (ip), vehicle: Klucel (hydroxypropylcellulose) (HPC)
[10] = dose: 200.0 mg/kg/injection, schedule: Q04DX003 (ip), vehicle: Klucel (hydroxypropylcellulose) (HPC)
[11] = dose: 50.0 mg/kg/injection, schedule: Q01DX009 (ip), vehicle: Klucel (hydroxypropylcellulose) (HPC)
[12] = dose: 100.0 mg/kg/injection, schedule: Q01DX009 (ip), vehicle: Klucel (hydroxypropylcellulose) (HPC)
[13] = dose: 200.0 mg/kg/injection, schedule: Q01DX009 (ip), vehicle: Klucel (hydroxypropylcellulose) (HPC)
[14] = dose: 60.0 mg/kg/injection, schedule: Q01DX005 (ip), vehicle: saline with Tween-80
[15] = dose: 120.0 mg/kg/injection, schedule: Q01DX005 (ip), vehicle: saline with Tween-80
[16] = dose: 240.0 mg/kg/injection, schedule: Q01DX005 (ip), vehicle: saline with Tween-80
[17] = dose: 100.0 mg/kg/injection, schedule: Q01DX009 (ip), vehicle: saline with Tween-80
[18] = dose: 200.0 mg/kg/injection, schedule: Q01DX009 (ip), vehicle: saline with Tween-80
[19] = dose: 60.0 mg/kg/injection, schedule: Q01DX005 (ip), vehicle: Klucel (hydroxypropylcellulose) (HPC)
[20] = dose: 120.0 mg/kg/injection, schedule: Q01DX005 (ip), vehicle: Klucel (hydroxypropylcellulose) (HPC)
[21] = dose: 50.0 mg/kg/injection, schedule: Q01DX005 (ip), vehicle: saline with Tween-80
[22] = dose: 100.0 mg/kg/injection, schedule: Q01DX005 (ip), vehicle: saline with Tween-80
[23] = dose: 200.0 mg/kg/injection, schedule: Q01DX005 (ip), vehicle: saline with Tween-80

`Nc1nn(-c2cccc(C(F)(F)F)c2)c2cccc[n+]12` was tested, and the T/C [1] was 100 % of control, the T/C [2] was 105 % of control and the T/C (dose: 25.0 mg/kg/injection, schedule: Q01DX009 (ip), vehicle: water) was 111 % of control. The T/C [3] was 100 % of control and the T/C (dose: 50.0 mg/kg/injection, schedule: Q01DX009 (ip), vehicle: water) was 106 % of control.

In the case of `CCCC(=O)C(CC)C(O)(C(F)(F)F)C(F)(F)F` (centres undefined), the T/C [4] is reported as 104 % of control, the T/C [5] is reported as 104 % of control and the T/C (dose: 200.0 mg/kg/injection, schedule: Q01DX009 (ip), vehicle: saline) is reported as 109 % of control.

In the case of `CC[N](CC)[Ge]([CH2]C)[CH2]C.CC[N](CC)[Ge]([CH2]C)[CH2]C`, the T/C (dose: 6.25 mg/kg/injection, schedule: Q01DX009 (ip), vehicle: saline) is reported as 106 % of control, the T/C [6] is reported as 109 % of control and the T/C (dose: 50.0 mg/kg/injection, schedule: Q04DX003 (ip), vehicle: saline) is reported as 116 % of control. For the same molecule, the T/C [7] was 114 % of control.

For `CCOC(=O)c1ccc2c(c1)Nc1cc3ccccc3cc1N2`, the T/C (dose: 25.0 mg/kg/injection, schedule: Q01DX009 (ip), vehicle: saline + alcohol) was 104 % of control, the T/C (dose: 50.0 mg/kg/injection, schedule: Q01DX009 (ip), vehicle: saline + alcohol) was 88 % of control and the T/C (dose: 100.0 mg/kg/injection, schedule: Q01DX009 (ip), vehicle: saline + alcohol) was 101 % of control.

For `C=CCNC(=S)N\N=C/C(/C=C/c1ccccc1)=N\NC(=S)NCC=C`, the T/C [8] was 103 % of control, the T/C (dose: 200.0 mg/kg/injection, schedule: Q04DX002 (ip), vehicle: Klucel (hydroxypropylcellulose) (HPC)) was 91 % of control and the T/C (dose: 400.0 mg/kg/injection, schedule: Q04DX002 (ip), vehicle: Klucel (hydroxypropylcellulose) (HPC)) was 91 % of control.

In the case of `CC(SC(C)(C)C)C(=O)SC(C)(C)C` (centres undefined), the T/C [9] is reported as 102 % of control, the T/C [10] is reported as 103 % of control and the T/C (dose: 400.0 mg/kg/injection, schedule: Q04DX003 (ip), vehicle: Klucel (hydroxypropylcellulose) (HPC)) is reported as 105 % of control.

With `CCO/C([O-])=C(\C=N\S(=O)(=O)c1ccc(C)cc1)[n+]1ccccc1` the T/C [11] was 104 % of control, the T/C [12] was 105 % of control and the T/C [13] was 108 % of control.

In the case of `O=C(NC(Cc1c[nH]c2ccccc12)C(=O)O)c1ccccc1[N+](=O)[O-]` (centres undefined), the T/C (dose: 6.25 mg/kg/injection, schedule: Q01DX005 (ip), vehicle: Klucel (hydroxypropylcellulose) (HPC)) is reported as 93 % of control, the T/C (dose: 12.5 mg/kg/injection, schedule: Q01DX005 (ip), vehicle: Klucel (hydroxypropylcellulose) (HPC)) is reported as 108 % of control and the T/C (dose: 25.0 mg/kg/injection, schedule: Q01DX005 (ip), vehicle: Klucel (hydroxypropylcellulose) (HPC)) is reported as 97 % of control.

In the case of `CCCC(O)CN` (centres undefined), the T/C [7] is reported as 103 % of control and the T/C (dose: 200.0 mg/kg/injection, schedule: Q04DX003 (ip), vehicle: saline) is reported as 107 % of control.

With `C=C1C(=O)SC(=NCc2ccccc2)N1C` the T/C [14] was 96 % of control, the T/C [15] was 90 % of control and the T/C [16] was 91 % of control.

`COc1ccc2c(c1)CCCC(Br)C2=O` (centres undefined) was tested, and the T/C (dose: 25.0 mg/kg/injection, schedule: Q01DX009 (ip), vehicle: distilled water + alcohol) was 107 % of control, the T/C (dose: 50.0 mg/kg/injection, schedule: Q01DX009 (ip), vehicle: distilled water + alcohol) was 105 % of control and the T/C (dose: 100.0 mg/kg/injection, schedule: Q01DX009 (ip), vehicle: distilled water + alcohol) was 120 % of control. For the same molecule, the T/C (dose: 200.0 mg/kg/injection, schedule: Q01DX009 (ip), vehicle: distilled water + alcohol) was 122 % of control.

With `O=c1[nH]ccc2occc12` the T/C [2] was 100 % of control, the T/C [3] was 100 % of control and the T/C [17] was 109 % of control.

For `O=C(Nc1cccc2c(O)c(N=Nc3ccc(S(=O)(=O)Nc4nccs4)cc3)cc(N=Nc3ccc(S(=O)(=O)Nc4nccs4)cc3)c12)C(Cl)Cl`, the T/C [3] was 102 % of control, the T/C [17] was 106 % of control and the T/C [18] was 98 % of control.

In the case of `Cc1ccc2nc3sc(=O)sc3nc2c1`, the T/C [19] is reported as 101 % of control and the T/C [20] is reported as 107 % of control.

`O=C(O)COc1ccc(I)cc1I` was tested, and the T/C [9] was 110 % of control and the T/C [10] was 91 % of control.

With `S=C=NCCc1ccccc1` the T/C [1] was 116 % of control, the T/C (dose: 22.0 mg/kg/injection, schedule: Q01DX009 (ip), vehicle: saline with Tween-80) was 115 % of control and the T/C [3] was 114 % of control.

With `CN(C)c1ccc(C(c2cc3c(cc2O)OCO3)N2CCCC2)cc1` (centres undefined) the T/C [19] was 108 % of control, the T/C [20] was 109 % of control and the T/C (dose: 240.0 mg/kg/injection, schedule: Q01DX005 (ip), vehicle: Klucel (hydroxypropylcellulose) (HPC)) was 109 % of control.

In the case of `O=C1c2ccc(=O)[nH]c2C(=O)C2CC3=C(CCCC3)CC12` (centres undefined), the T/C [21] is reported as 109 % of control, the T/C [22] is reported as 97 % of control and the T/C [23] is reported as 94 % of control.

In the case of `NC(=O)C(N)CCc1ccccc1` (centres undefined), the T/C [14] is reported as 100 % of control, the T/C [15] is reported as 102 % of control and the T/C [16] is reported as 96 % of control.

`CCCCCCCCCCNCCSSCc1ccccc1` was tested, and the T/C (dose: 12.5 mg/kg/injection, schedule: Q04DX002 (ip), vehicle: Klucel (hydroxypropylcellulose) (HPC)) was 100 % of control, the T/C (dose: 25.0 mg/kg/injection, schedule: Q04DX002 (ip), vehicle: Klucel (hydroxypropylcellulose) (HPC)) was 100 % of control and the T/C (dose: 50.0 mg/kg/injection, schedule: Q04DX002 (ip), vehicle: Klucel (hydroxypropylcellulose) (HPC)) was 109 % of control. For the same molecule, the T/C [8] was 105 % of control.

`CCOC(=O)C(Cc1ccc(O)cc1)NC(=O)c1cc2c(cn1)[nH]c1ccccc12` (centres undefined) was tested, and the T/C [14] was 101 % of control and the T/C [15] was 117 % of control.

In the case of `CC1(C)C2CCC(O2)C(C)(C)C2CCC(O2)C(C)(C)C2CCC(O2)C(C)(C)C2CCC1O2`, the T/C [21] is reported as 102 % of control, the T/C [22] is reported as 100 % of control and the T/C [23] is reported as 95 % of control.

For `FP1(c2ccccc2)(c2ccccc2)Nc2cc(C(c3ccccc3)(c3ccccc3)c3ccccc3)ccc2O1`, the T/C [1] was 104 % of control, the T/C [2] was 98 % of control and the T/C [3] was 92 % of control. For the same molecule, the T/C [18] was 95 % of control.

In the case of `CN(CO)c1nc(N(C)CO)nc(N(C)CO)n1`, the T/C [1] is reported as 110 % of control, the T/C [6] is reported as 103 % of control and the T/C [2] is reported as 119 % of control. For the same molecule, the T/C [4] was 160 % of control, the T/C [17] was 151 % of control and the T/C [5] was 203 % of control.

`C(=Nc1cccnc1)c1ccc(C=Nc2cccnc2)cc1` was tested, and the T/C [4] was 108 % of control and the T/C [5] was 104 % of control.

`CCCCC#CC(=O)O` was tested, and the T/C [4] was 103 % of control and the T/C [5] was 94 % of control.

For `Cc1ccc(S(=O)(=O)Oc2ccc3oc4cccc(NCCN(C)C)c4c(=O)c3c2)cc1`, the T/C [21] was 95 % of control, the T/C [22] was 97 % of control and the T/C [23] was 93 % of control.

In the case of `COC1/C=C\OC2(C)Oc3c(C)c(O)c4c(O)c(c5[nH]cnc5c4c3C2=O)NC(=O)/C(C)=C\C=C\C(C)C(O)C(C)C(O)C(C)C(OC(C)=O)C1C` (centres undefined), the T/C (dose: 25.0 mg/kg/injection, schedule: Q01DX009 (ip), vehicle: Klucel (hydroxypropylcellulose) (HPC)) is reported as 102 % of control, the T/C [11] is reported as 102 % of control and the T/C [12] is reported as 100 % of control. The T/C [13] was 108 % of control.

With `CCC(C)C[c-]1[c-][c-][c-][c-]1.[Cl][Zr][Cl].[c-]1[c-][c-][cH-][c-]1` (centres undefined) the T/C (dose: 6.25 mg/kg/injection, schedule: Q04DX002 (ip), vehicle: saline) was 102 % of control, the T/C (dose: 12.5 mg/kg/injection, schedule: Q01DX001 (ip), vehicle: saline with Tween-80) was 100 % of control and the T/C (dose: 12.5 mg/kg/injection, schedule: Q04DX002 (ip), vehicle: saline) was 106 % of control. The T/C (dose: 25.0 mg/kg/injection, schedule: Q01DX001 (ip), vehicle: saline with Tween-80) was 98 % of control, the T/C (dose: 25.0 mg/kg/injection, schedule: Q04DX002 (ip), vehicle: saline) was 100 % of control and the T/C (dose: 50.0 mg/kg/injection, schedule: Q01DX001 (ip), vehicle: saline with Tween-80) was 97 % of control.
